Tests used:
Type in all cases: in vivo, ApoE−/− mice
CCL2 = assay: Aortic mural gene expression, RT-PCR (TLDA); conditions: fold change over ApoE−/− control; aorta, 28 days Ang II infusion
Description: (§1) ApoE−/− mice used in this study were divided into different pretreatment groups: 1) Fluvastatin-MF; 2) Doxycycline-MD; 3) Irbesartan-MI; 4) Telmisartan-MT; 5) Control (water) and fed medicated chow or medicated drinking water 1 week prior to pump implantation. AngII (1000 ng·kg^−1 of body weight·min^−1) was infused subcutaneously via Alzet mini-osmotic pumps for 28 days. All mice were maintained on the medicated chow (MI & MT) or medicated drinking water (MF & MD) treatments which were delivered daily for a total of 28 days following pump implantation.
(§2) In order to determine the effect of the various treatments on the progressive enlargement of the experimental AAAs the mice were followed with high frequency trans-abdominal ultrasound. Maximum aortic diameter was measured and recorded prior to pump implantation and then at 3, 7, 14, 21, and 28 days. All mice were sacrificed 28 days after pump implantation. Aortae were harvested and subjected to either histological analysis (Elastic Masson trichome, MAC2, CD31 and TUNEL staining) and analysis of mural gene expression. Plasma drug concentrations of experimental compounds were quantified on the day of sacrifice using high performance liquid chromatography (HPLC).
(§3) Total RNA was extracted from homogenized aortas using the Qiazol lysis reagent and RNeasy Lipid Tissue Mini kit. DNAse treatment was included in the procedure. RNA concentration was determined utilizing the Quant iT RNA assay kit. Complimentary deoxyribonucleic acid (cDNA) was synthesized from 1 μg RNA using High reverse cDNA transcription kit. Briefly the reaction tubes containing RNA, reverse transcriptase, buffer, RNAse inhibitor, and nuclease free water were incubated at 25° C. for 10 minutes to allow annealing. Reverse transcription was performed at 37° C. for 120 min, followed by a 5 sec incubation at 85° C. to inactivate the reverse transcriptase enzyme. The cDNA samples were cooled at 4° C. and stored at −80° C. until further use.
(§4) Real time PCR was performed using a 384-well Taqman low density array (TLDA) card. Each sample specific PCR mix contained 50 ng of total RNA converted to cDNA. The PCR reaction for Taqman assays contained 50 μl Master Mix (Taqman Universal PCR Master Mix,) and 50 ul of cDNA and RNAase free water. Assays were performed to include appropriate controls (no template control). The RT-PCR protocol included an initial step of 50° C. (2 minutes) […], denaturation by a hot start at 95° C. for 10 min, followed by 40 cycles of a 2 step program (denaturation at 95° C. for 15 secs for primer annealing/extension at 60° C. for 1 min). Fluorescence data was collected at 60° C. Fluorescence was quantified with ABI PRISM 7900HT Sequence Detection System. To verify amplification of a specific target cDNA, data generated was analyzed using SDS 2.2.3 software (Sequence Detection System Software, Applied Biosystems). For all amplification plots, the baseline data were set with the automatic CT function available with SDS 2.2.3 calculating the optimal baseline range and threshold value by using the AutoCT algorithm. According to the manufacturer's instruction, a CT value of ≧39 corresponds to nonspecific amplification marking the limits of detection. For endogenous control GAPDH was normalized to B2M. For relative quantification (RQ), pooled ApoE−/− control was used as the calibrator (with expression equal to 1).

CXCR4 = assay: Aortic mural gene expression, RT-PCR (TLDA); conditions: fold change over ApoE−/− control; aorta, 28 days Ang II infusion
Description: as §1, §2, §3, §4

Cathepsin B = assay: Aortic mural gene expression, RT-PCR (TLDA); conditions: fold change over ApoE−/− control; aorta, 28 days Ang II infusion
Description: as §1, §2, §3, §4

Cathepsin S = assay: Aortic mural gene expression, RT-PCR (TLDA); conditions: fold change over ApoE−/− control; aorta, 28 days Ang II infusion
Description: as §1, §2, §3, §4

Fibronectin -1 = assay: Aortic mural gene expression, RT-PCR (TLDA); conditions: fold change over ApoE−/− control; aorta, 28 days Ang II infusion
Description: as §1, §2, §3, §4

IL-7 = assay: Aortic mural gene expression, RT-PCR (TLDA); conditions: fold change over ApoE−/− control; aorta, 28 days Ang II infusion
Description: as §1, §2, §3, §4

ITGB2 = assay: Aortic mural gene expression, RT-PCR (TLDA); conditions: fold change over ApoE−/− control; aorta, 28 days Ang II infusion
Description: as §1, §2, §3, §4

MAPK8 = assay: Aortic mural gene expression, RT-PCR (TLDA); conditions: fold change over ApoE−/− control; aorta, 28 days Ang II infusion
Description: as §1, §2, §3, §4

MMP-12 = assay: Aortic mural gene expression, RT-PCR (TLDA); conditions: fold change over ApoE−/− control; aorta, 28 days Ang II infusion
Description: as §1, §2, §3, §4

MMP-8 = assay: Aortic mural gene expression, RT-PCR (TLDA); conditions: fold change over ApoE−/− control; aorta, 28 days Ang II infusion
Description: as §1, §2, §3, §4

Runx3 = assay: Aortic mural gene expression, RT-PCR (TLDA); conditions: fold change over ApoE−/− control; aorta, 28 days Ang II infusion
Description: as §1, §2, §3, §4

TIMP2 = assay: Aortic mural gene expression, RT-PCR (TLDA); conditions: fold change over ApoE−/− control; aorta, 28 days Ang II infusion
Description: as §1, §2, §3, §4

Vav1 = assay: Aortic mural gene expression, RT-PCR (TLDA); conditions: fold change over ApoE−/− control; aorta, 28 days Ang II infusion
Description: as §1, §2, §3, §4

NFKb1 = assay: Aortic mural gene expression, RT-PCR (TLDA); conditions: fold change over ApoE−/− control; aorta, 28 days Ang II infusion
Description: Total RNA was extracted from homogenized aortas using the Qiazol lysis reagent and RNeasy Lipid Tissue Mini kit. DNAse treatment was included in the procedure. RNA concentration was determined utilizing the Quant iT RNA assay kit. Complimentary deoxyribonucleic acid (cDNA) was synthesized from 1 μg RNA using High reverse cDNA transcription kit. Briefly the reaction tubes containing RNA, reverse transcriptase, buffer, RNAse inhibitor, and nuclease free water were incubated at 25° C. for 10 minutes to allow annealing. […] The cDNA samples were cooled at 4° C. and stored at −80° C. until further use.
Real time PCR was performed using a 384-well Taqman low density array (TLDA) card. Each sample specific PCR mix contained 50 ng of total RNA converted to cDNA. The PCR reaction for Taqman assays contained 50 μl Master Mix (Taqman Universal PCR Master Mix,) and 50 ul of cDNA and RNAase free water. Assays were performed to include appropriate controls (no template control). The RT-PCR protocol included an initial step of 50° C. […] Fluorescence data was collected at 60° C. Fluorescence was quantified with ABI PRISM 7900HT Sequence Detection System. To verify amplification of a specific target cDNA, data generated was analyzed using SDS 2.2.3 software (Sequence Detection System Software, Applied Biosystems). […] For relative quantification (RQ), pooled ApoE−/− control was used as the calibrator (with expression equal to 1).

[1] = tested on: genes involved in the pathophysiology of AAA; assay: Drug inhibition effect on differentially expressed genes, overall; conditions: for Down-regulation of genes involved in the pathophysiology of AAA: ApoE−/− + Ang II AAA model, summary of Table 2; for Total Score: sum of heat map grades over 25 genes, ApoE−/− + Ang II group scored 55
Description: as §1, §2, §3, §4

AAA = assay: Aortic diameter by ultrasonography, ApoE−/−+Ang II AAA model; conditions: pretreatment 1 week before Ang II infusion, followed to 28 days, versus control and doxycycline
Text: The ApoE^−/−+Ang II AAA model is well established and supported by current scientific literature. Mice genetically predisposed to hypercholesterolemia develop aneurysms when treated with angiotensin II. Aneurysms generally develop within the first week after pump implantation and share many important pathologic characteristics with human AAA disease. ApoE−/− mice used in this study were divided into different pretreatment groups: 1) Fluvastatin-MF; 2) Doxycycline-MD; 3) Irbesartan-MI; 4) Telmisartan-MT; 5) Control (water) and fed medicated chow or medicated drinking water 1 week prior to pump implantation. AngII (1000 ng·kg^−1 of body weight·min^−1) was infused subcutaneously via Alzet mini-osmotic pumps for 28 days. All mice were maintained on the medicated chow (MI & MT) or medicated drinking water (MF & MD) treatments which were delivered daily for a total of 28 days following pump implantation. In order to determine the effect of the various treatments on the progressive enlargement of the experimental AAAs the mice were followed with high frequency trans-abdominal ultrasound. Maximum aortic diameter was measured and recorded prior to pump implantation and then at 3, 7, 14, 21, and 28 days. All mice were sacrificed 28 days after pump implantation. Aortae were harvested and subjected to either histological analysis (Elastic Masson trichome, MAC2, CD31 and TUNEL staining) and analysis of mural gene expression. Plasma drug concentrations of experimental compounds were quantified on the day of sacrifice using high performance liquid chromatography (HPLC).

Compound | CCL2 expression (CCL2) | CXCR4 expression (CXCR4) | Cathepsin B expression (Cathepsin B) | Cathepsin S expression (Cathepsin S) | Fibronectin -1 expression (Fibronectin -1) | IL-7 expression (IL-7) | ITGB2 expression (ITGB2) | MAPK8 expression (MAPK8) | MMP-12 expression (MMP-12) | MMP-8 expression (MMP-8) | Runx3 expression (Runx3) | TIMP2 expression (TIMP2) | Vav1 expression (Vav1) | NFKb1 expression (NFKb1) | Down-regulation of genes involved in the pathophysiology of AAA [1] | Total Score [1] | Inhibition of aneurysm development/growth (aortic diameter) (AAA) | Inhibition of aneurysm development/growth (aortic diameter) (AAA; listed as telmisartan)
CCCc1nc2c(C)cc(-c3nc4ccccc4n3C)cc2n1Cc1ccc(-c2ccccc2C(=O)O)cc1 [Telmisartan] | − (0 to 1 = −) | +++ (3.1 to 10 = +++) | − (0 to 1 = −) | − (0 to 1 = −) | − (0 to 1 = −) | + (1.1 to 1.5 = +) | − (0 to 1 = −) | ++ (1.51 to 3 = ++) | − (0 to 1 = −) | − (0 to 1 = −) | − (0 to 1 = −) | − (0 to 1 = −) | − (0 to 1 = −) | − (0 to 1 = −) | down-regulating the expression of genes | 6 | effective in inhibiting aneurysm development | effective in inhibiting/preventing aneurysm development
CC(C)n1c(/C=C/C(O)CC(O)CC(=O)O)c(-c2ccc(F)cc2)c2ccccc21 (centres unmarked) [Fluvastatin] | ++ (1.51 to 3 = ++) | +++ (3.1 to 10 = +++) | + (1.1 to 1.5 = +) | +++ (3.1 to 10 = +++) | − (0 to 1 = −) | − (0 to 1 = −) | ++ (1.51 to 3 = ++) | − (0 to 1 = −) | +++ (3.1 to 10 = +++) | ++++ (>10.1 = ++++) | ++ (1.51 to 3 = ++) | − (0 to 1 = −) | ++ (1.51 to 3 = ++) | − (0 to 1 = −) | down-regulating the expression of genes | 45 | relative good inhibition of AAA | 

— US20120239131A1, “METHODS AND APPARATUS FOR TREATMENT OF ANEURYSMAL TISSUE” (Medtronic Vascular, Inc., priority 2011, published 2012)
